Measured values published in article PMC3223204, “Implantation Serine Proteinase 1 Exhibits Mixed Substrate Specificity that Silences Signaling via Proteinase-Activated Receptors” (PLoS ONE, 2011).
Entries after “also recorded” stand apart in the source; their conditions may differ. Structures can show the parent of a compound that is named as a salt. Where two headings read alike, the source gives them in different places. Non-standard residues stand in square brackets, D forms with d. Residues, ends and D or L forms follow the SMILES beside them. *: point of attachment. pNA = O=[N+]([O-])c1ccc(N*)cc1; Tos = Cc1ccc(S(=O)(=O)*)cc1; Bz = O=C(c1ccccc1)*

T1: recombinant ISP1 (Mus musculus, UniProt Q924N9)
T1 construct: Myc (C); His6 (C); made in house; host or cells: Pichia pastoris SMD1168
T1 sequence (Q924N9 31-274 limits assumed): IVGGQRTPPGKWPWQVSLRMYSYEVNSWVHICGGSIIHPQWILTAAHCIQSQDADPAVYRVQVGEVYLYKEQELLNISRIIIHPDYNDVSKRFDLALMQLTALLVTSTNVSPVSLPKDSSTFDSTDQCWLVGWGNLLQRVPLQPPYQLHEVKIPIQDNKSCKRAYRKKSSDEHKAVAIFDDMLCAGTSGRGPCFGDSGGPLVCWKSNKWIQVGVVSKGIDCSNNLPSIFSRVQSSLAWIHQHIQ

B1: Soybean Trypsin Inhibitor: general serine proteinase inhibitor (protein, UniProt P01070 25-205, looked up)
Trypsin inhibitor A: DFVLDNEGNPLENGGTYYILSDITAFGGIRAAPTGNERCPLTVVQSRNELDKGIGTIISSPYRIRFIAEGHPLSLKFDSFAVIMLCVGIPTEWSVVEDLPEGPAVKIGENKDAMDGWFRLERVSDDEFNNYKLVFCPQQAEDDKCGDIGISIDHDDGTRRLVVSKNKPLVVQFQKLDKESL
B2: Recombinant human SLPI: recombinant human Secretory Leukocyte Protease Inhibitor (protein, UniProt P03973 26-132, looked up)
Antileukoproteinase: SGKSFKAGVCPPKKSAQCLRYKKPECQSDWQCPGKKRCCPDTCGIKCLDPVDTPNPTRRKPGKCPVTYGQCLMLNPPNFCEMDGQCKRDLKCCMGMCGKSCVSPVKA

Experiments:
recombinant ISP1 [1] = target: T1, recombinant ISP1; test: Chromogenic substrate kinetics of recombinant ISP1; type: biochemical; conditions: for Hydrolysis of chromogenic substrate by rISP1: result in words; for Michaelis Menton Constant (Km) / Turnover No. (kcat) / Km: substrate of recombinant ISP1, 25 mM Tris.Cl pH 8.0, room temperature; for Turnover No. (kcat): [E] 6.5 uM; for Km: read-out: Michaelis Menton Constant (Km)
Description: (§1) p-Nitroanilide substrates, Valine-Proline-Arginine-Amino methyl coumarin (VPR-AMC), Benzamidine Hydrochloride, TLCK (N -p-tosyl-L-lysine chloromethyl ketone), APMSF (4-Amidino-Phenyl)-Methane-Sulfonyl Fluoride), Trypsin Soybean Inhibitor (TSI) and Gabexate mesylate were obtained from Sigma Aldrich and Co. Oakville, ON Canada. Chromogenic assays were performed using the p-Nitroanilide/methyl-naphthylamide conjugated peptidic substrates. The reaction conditions used were: 25 mM Tris.Cl (pH 8.0) buffer with 10 mM EDTA reaction buffer, in a total reaction volume of 0.5 mL including varying concentrations of the substrates and enzyme sample. The reactions were done at room temperature in a glass cuvette (1 cm path length), and scanned at wavelength of 405 nm (in case of p-nitroanilide conjugated substrates) and 540 nm (in case of methyl-naphthylamide substrates) using a spectrophotometer. 1 Unit of enzyme is defined as the amount of enzyme capable of the breakdown of 1 micromole of substrate/min.
(§2) The catalytic activity of recombinant ISP1 with various small chromogenic peptide substrates was characterized by measuring enzyme cleavage at differing substrate concentrations and plotting enzyme activity [V] vs. substrate concentration [S] and calculating Michaelis Menten constant (Km). The Km was calculated using the Michaelis Menten equation (Km = [S] at ½ Vmax). Sigma plot was used for plotting the values obtained and determining Michaelis Menten Constant (Km). Inhibition of proteolytic activity of recombinant ISP1 was determined by measuring enzyme activity in the presence of varying concentrations of serine proteinase inhibitors. 2 mM BAPNA and 150 uM VPR-AMC were employed for enzyme assays in these inhibition studies. Sigma plot was used for plotting the values obtained in order to determine dissociation constant (Ki). Enzyme concentration [E] used for these experiments was 6.5 uM. This value was employed for calculating turnover number (kcat) and enzyme efficiency represented by kcat/Km ratio.

recombinant ISP1 [2] = target: T1, recombinant ISP1; test: Inhibition of recombinant ISP1 by general serine proteinase inhibitors; type: biochemical; conditions: for Effect on enzyme activity of rISP1: 2 mM BAPNA as well as 150 µM VPR-AMC as substrate, result in words; for Ki: read-out: Ki (Apparent Ki)
Description: as §1, §2

Molecule | Hydrolysis of chromogenic substrate by rISP1 (recombinant ISP1 [1]) | Turnover No. (kcat) (recombinant ISP1 [1]) | Effect on enzyme activity of rISP1 (recombinant ISP1 [2]) | also measured
C[C@H](N)C(=O)Nc1ccc([N+](=O)[O-])cc1 [Alanine p-nitroanilide] | no reaction | Nil |  | Michaelis Menton Constant (Km) (recombinant ISP1 [1]): Nil
N=C(N)c1ccccc1 [Benzamidine Hydrochloride] |  |  | no noticeable effect | Ki (Apparent Ki) (recombinant ISP1 [2]; substrate BAPNA (2 mM)): No inhibition
CC(C)C[C@H](NC(=O)[C@@H](NC(=O)N[C@@H](Cc1ccccc1)C(=O)O)[C@@H]1CCN=C(N)N1)C(=O)N[C@H](C=O)Cc1ccccc1 [Chymostatin] |  |  | inhibited the enzyme activity | Effect on enzyme activity of rISP1 (recombinant ISP1 [2]; listed as chymostatin): strong inhibitory activity; Ki (recombinant ISP1 [2]; substrate BAPNA (2 mM)): 220 µM
CCOC(=O)c1ccc(OC(=O)CCCCCN=C(N)N)cc1.CS(=O)(=O)O [Gabexate mesylate] |  |  | inhibited the enzyme activity | Effect on enzyme activity of rISP1 (recombinant ISP1 [2]; listed as gabexate mesylate): strong inhibitory activity; Ki (recombinant ISP1 [2]; substrate BAPNA (2 mM)): 1700 µM
CC(=O)N[C@@H](CC(C)C)C(=O)N[C@@H](CC(C)C)C(=O)N[C@H](C=O)CCCNC(=N)N [Leupeptin] |  |  | no noticeable effect | Ki (Apparent Ki) (recombinant ISP1 [2]; substrate BAPNA (2 mM)): No inhibition
CC(=O)O.Cc1ccc(S(=O)(=O)NCC(=O)N2CCC[C@H]2C(=O)N[C@@H](CCCCN)C(=O)Nc2ccc([N+](=O)[O-])cc2)cc1 [N(p-tosyl)-glycine-proline-lysine p-nitroanilide acetate] (Tos-Gly-Pro-Lys-pNA) | no enzyme activity | Nil |  | Michaelis Menton Constant (Km) (recombinant ISP1 [1]): Nil
Cl.N=C(N)NCCC[C@H](NC(=O)c1ccccc1)C(=O)Nc1ccc([N+](=O)[O-])cc1 [N-Benzoyl Argininep-nitroanilide (BAPNA), N-Benzoyl-L- arginine p-nitroanilide hydrochloride] | hydrolyzed | 2.2 s⁻¹ |  | Km (recombinant ISP1 [1]): 610 µM
CC[C@H](C)[C@H](NC(=O)c1ccccc1)C(=O)N[C@@H](Cc1ccccc1)C(=O)N[C@@H](CCCCN)C(=O)Nc1ccc([N+](=O)[O-])cc1.Cl [N-Benzoyl-isoleucine-phenylalanine-lysine p-nitroanilide hydrochloride] (Bz-Ile-Phe-Lys-pNA) | hydrolyzed | 3.9 s⁻¹ |  | Km (recombinant ISP1 [1]): 9600 µM
CC(C)[C@H](NC(=O)[C@H](Cc1ccccc1)NC(=O)c1ccccc1)C(=O)N[C@@H](CCCNC(=N)N)C(=O)Nc1ccc([N+](=O)[O-])cc1.Cl [N-Benzoyl-phenylalanine-valine-arginine p-nitroanilide hydrochloride] (Bz-Phe-Val-Arg-pNA) | hydrolyzed | 0.14 s⁻¹ |  | Km (recombinant ISP1 [1]): 360 µM
COc1cc(NC(=O)C(CCCNC(=N)N)NC(=O)C(CCCNC(=N)N)NC(=O)C(CCCNC(=N)N)NC(=O)OCc2ccccc2)cc2ccccc12 (stereo not shown) [N-CBZ-arginine-arginine-arginine-4-methoxy naphthylamide] | hydrolyzed | 0.7 s⁻¹ |  | Km (recombinant ISP1 [1]; listed as RRRmN): ~100 µM; Km (recombinant ISP1 [1]): 99 µM
C[C@H](NC(=O)CCC(=O)O)C(=O)N[C@@H](C)C(=O)N[C@@H](C)C(=O)Nc1ccc([N+](=O)[O-])cc1 [N-Succinyl-alanine-alanine-alanine p-nitroanilide] | no reaction | Nil |  | Michaelis Menton Constant (Km) (recombinant ISP1 [1]): Nil
O=S(=O)(F)Cc1ccccc1 [PMSF] |  |  | inhibited the enzyme activity; also recorded: strong inhibitory activity | Ki (recombinant ISP1 [2]; substrate VPR-AMC (0.15 mM)): 340 µM
Cc1ccc(S(=O)(=O)N[C@@H](CCCCN)C(=O)CCl)cc1 [TLCK, N -p-tosyl-L-lysine chloromethyl ketone] |  |  | inhibited the enzyme activity; also recorded: strong inhibitory activity | Ki (recombinant ISP1 [2]; substrate VPR-AMC (0.15 mM)): 30 µM
CC(C)C[C@H](NC(=O)[C@H](N)C(C)C)C(=O)N[C@@H](CCCCN)C(=O)Nc1ccc([N+](=O)[O-])cc1.Cl [Valine-Leucine-Lysinep-nitroanilide, H-D-valine-leucine-lysine p-nitroanilide hydrochloride] (H-[dV]-Leu-Lys-pNA) | no enzyme activity | Nil |  | Michaelis Menton Constant (Km) (recombinant ISP1 [1]): Nil
CC(C)[C@H](N)C(=O)N[C@@H](Cc1ccccc1)C(=O)N[C@@H](CCCCN)C(=O)Nc1ccc([N+](=O)[O-])cc1 [Valine-Phenylalanine-Lysine p-nitroanilide] (H-Val-Phe-Lys-pNA) | no enzyme activity | Nil |  | Michaelis Menton Constant (Km) (recombinant ISP1 [1]): Nil
Aprotinin |  |  | no noticeable effect | Ki (Apparent Ki) (recombinant ISP1 [2]; substrate BAPNA (2 mM)): No inhibition
α-1-Antitrypsin: general serine proteinase inhibitor |  |  | inhibited the enzyme activity | Effect on enzyme activity of rISP1 (recombinant ISP1 [2]; listed as α-1 antitrypsin): strong inhibitory activity; Ki (recombinant ISP1 [2]; substrate BAPNA (2 mM)): 2 µM
B1 |  |  | inhibited the enzyme activity | Effect on enzyme activity of rISP1 (recombinant ISP1 [2]; listed as trypsin soybean inhibitor): strong inhibitory activity; Ki (recombinant ISP1 [2]; substrate BAPNA (2 mM)): 2.4 µM
B2 |  |  | no noticeable effect | Ki (Apparent Ki) (recombinant ISP1 [2]; substrate BAPNA (2 mM)): No inhibition
